One molecule from patent US20260324636A1, “COMPOSITION FOR PROVIDING PLANT WITH STRESS RESISTANCE” (KIRIN HOLDINGS KABUSHIKI KAISHA, priority 2022, published 2026) can be followed below.

For one experiment, the system named is HSP17.6C. Kind of experiment: HSP17.6C gene expression by real-time PCR, Example 5. Format: in vivo. The following applies: Arabidopsis thaliana; 0.1 mM in medium, 6 hours after application, 22° C.; read-out: HSP17.6C expression level, increase vs control group. The protocol: (§1) The materials as used in Example 1 were used.
The method as employed in Example 1 was employed.
N-acetylglutamic acid was applied to Arabidopsis thaliana 7 days after inoculation to the final concentration of 0.1 mM in the medium, followed by incubation for 2 hours or 6 hours. The incubator was maintained at a temperature of 22° C. for a daily cycle of 16 hours light and 8 hours darkness. After incubation, the samples were frozen with liquid nitrogen, and RNA was extracted using the RNeasy Plant Mini Kit (Thermo Fischer Scientific).
cDNA that would be necessary as a real-time PCR template was synthesized from the RNA obtained. 500 ng total RNA was used for each sample, and cDNA was synthesized using the Verso cDNA Synthesis Kit (Thermo Fischer Scientific). The synthesized cDNA was diluted to 5-fold with sterile distilled water and subjected to real-time PCR. For real-time PCR, a reaction solution containing HSFA2 (AGI code: AT2G26150) and HSP17.6C (AGI code: AT1G53540) as the target genes, ACTIN2 (AGI code: AT3G18780) as the reference gene, and TB Green Ex Taq II (TaKaRa) was prepared. PCR was performed with the use of the LightCycler® 480 System (Roche) with the number of amplification cycles of 50. […]
Thereafter, the relative expression level of the target genes upon N-acetylglutamic acid treatment were calculated by the ΔΔCt method using the Cp values obtained by real-time PCR.
Background: In qPCR the cycle at which signal appears reflects the starting amount.

Another experiment has as its system Arabidopsis thaliana. Kind of experiment: Oxidation stress resistance against methyl viologen (leaf chlorosis, chlorophyll content), Example 8. Type of experiment: in vivo, Arabidopsis thaliana (Col-0). Conditions: with 5 μM methyl viologen, 2 days. How it is done: A wild-type Arabidopsis thaliana strain (accession: Col-0) was used as an experimental material. Seeds were purchased from Inplanta Innovations Inc.
A Murashige and Skoog Plant Salt Mixture 2.2 g (Nacalai tesque) and sucrose 10 g (FUJIFILM Wako) were dissolved in 1 l of pure water, a pH was adjusted to 5.8, and the resultant was sterilized in an autoclave (121° C., 20 minutes).
Arabidopsis thaliana seeds were sterilized by incubation with the use of a Kitchen Haiter® (Kao Corporation) diluted to 2-fold with pure water for 3 minutes. After the seeds were washed with sterile water 3 times, the seeds soaked in sterile water were incubated at 4° C. in the dark for 1 day in order to germinate the seeds at the same time. […]
Leaf chlorosis is observed in plants upon oxidation stress exposure. Thus, an extent of chlorosis was evaluated by measuring the content of the green pigment chlorophyll in leaves. The chlorophyll content was quantified in accordance with the method of Yamaguchi et al. (Nature Commun., Jun. 9, 2021; 12 [1]: 3480). […] The absorbance of the extract was measured at 647 nm and 664 nm, respectively, to calculate the chlorophyll content. The chlorophyll content was calculated in accordance with the formula: 19.43×A647+8.05×A664. The calculated value was divided by the plant weight per well, so as to eliminate the influence of individual sizes.

The test system of a further experiment is ZAT10. Kind of experiment: ZAT10 gene expression by real-time PCR, Example 11. Format: in vivo. The following applies: Arabidopsis thaliana; 0.4 mM, 22° C. for 2 hours; read-out: ZAT10 expression level, increase vs control. The protocol: as §1
The medium as used in Example 1 was used.
To the Arabidopsis thaliana plants grown for 7 days in the same manner as in Example 1, 0.4 mM N-acetylglutamic acid or an equivalent amount of sterile water was added, and the plants were incubated at 22° C. for 2 hours. After incubation for 2 hours, the samples were frozen with liquid nitrogen, and RNA was extracted using the RNeasy Plant Mini Kit […].
cDNA that would be necessary as a real-time PCR template was synthesized from the RNA obtained. 1000 ng total RNA was used for each sample, and cDNA was synthesized using the Verso cDNA Synthesis Kit (Thermo Fischer Scientific). The synthesized cDNA was diluted to 5-fold with sterile distilled water and subjected to real-time PCR. For real-time PCR, a reaction solution containing ZAT10 (AGI code: AT1G27730) and ZAT12 (AGI code: AT5G59820) as the target genes, PP2AA3 (AGI code: AT1G13320) as the reference gene, and TB Green Ex Taq II (TakaRa) was prepared. PCR was performed with the use of the LightCycler® 480 System (Roche) with the number of amplification cycles of 50. The primers shown below were used.
Thereafter, the relative expression levels of the target genes upon N-acetylglutamic acid treatment were calculated by the ΔΔCt method using the Cp values obtained by real-time PCR.

Regarding `CC(=O)N[C@@H](CCC(=O)O)C(=O)O` [N-acetylglutamic acid], the fold induction at 100 µM with HSP17.6C came to 1.2. Also, the “chlorophyll content of the MV-treated groups” value with Arabidopsis thaliana (0, 0.01, 0.1, and 0.4 mM, fresh weight basis) was “increased as the N-acetylglutamic acid concentration was increased”. Also, the “leaf chlorosis in MV-treated group” value in the experiment on Arabidopsis thaliana (0.4 mM) was “substantially no leaf chlorosis was observed”. Moreover, the fold induction at 400 µM with ZAT10 amounted to 28.
